Molecular target: T1, human capsaicin receptor (Homo sapiens, UniProt Q8NER1)
T1 construct: pBK-CMV expression construct encoding the full length human capsaicin receptor; expressed in transfected cells
Test: Calcium mobilization assay, determination of antagonist activity (Example 6)
Format: cell-based
Conditions: Table II
Description: A cDNA encoding full length human capsaicin receptor (SEQ ID NO: 1, 2 or 3 of U.S. Pat. No. 6,482,611) was subcloned in the plasmid pBK-CMV (Stratagene, La Jolla, Calif.) for recombinant expression in mammalian cells.
Human embryonic kidney (HEK293) cells were transfected with the pBK-CMV expression construct encoding the full length human capsaicin receptor using standard methods. The transfected cells were selected for two weeks in media containing G418 (400 μg/ml) to obtain a pool of stably transfected cells. Independent clones were isolated from this pool by limiting dilution to obtain clonal stable cell lines for use in subsequent experiments.
This Example illustrates representative calcium mobilization assays for use in evaluating test compounds for agonist and antagonist activity.
Cells transfected with expression plasmids (as described in Example 4) and thereby expressing human capsaicin receptor are seeded and grown to 70-90% confluency in FALCON black-walled, clear-bottomed 96-well plates (#3904, BECTON-DICKINSON, Franklin Lakes, N.J.). The culture medium is emptied from the 96 well plates and FLUO-3 AM calcium sensitive dye (Molecular Probes, Eugene, Oreg.) is added to each well (dye solution: 1 mg FLUO-3 AM, 440 μL DMSO and 440 pi 20% pluronic acid in DMSO, diluted 1:250 in Krebs-Ringer HEPES (KRH) buffer (25 mM HEPES, 5 mM KCl, 0.96 mM NaH2PO4, 1 mM MgSO4, 2 mM CaCl2, 5 mM glucose, 1 mM probenecid, pH 7.4), 50 μl diluted solution per well). Plates are covered with aluminum foil and incubated at 37° C. for 1-2 hours in an environment containing 5% CO2. After the incubation, the dye is emptied from the plates, and the cells are washed once with KRH buffer, and resuspended in KRH buffer.
To measure the ability of a test compound to agonize or antagonize a calcium mobilization response in cells expressing capsaicin receptors to capsaicin or other vanilloid agonist, the EC50 of the agonist capsaicin is first determined. An additional 20 μl of KRH buffer and 1 μl DMSO is added to each well of cells, prepared as described above. 100 μl capsaicin in KRH buffer is automatically transferred by the FLIPR instrument to each well. Capsaicin-induced calcium mobilization is monitored using either FLUOROSKAN ASCENT (Labsystems; Franklin, Mass.) or FLIPR (fluorometric imaging plate reader system; Molecular Devices, Sunnyvale, Calif.) instruments. Data obtained between 30 and 60 seconds after agonist application are used to generate an 8-point concentration response curve, with final capsaicin concentrations of 1 nM to 3 μM. KALEIDAGRAPH software (Synergy Software, Reading, Pa.) is used to fit the data to the equation: y=a*(1/(1+(b/x)^c)) to determine the 50% excitatory concentration (EC50) for the response. In this equation, y is the maximum fluorescence signal, x is the concentration of the agonist or antagonist (in this case, capsaicin), a is the Emax, b corresponds to the EC50 value and c is the Hill coefficient. Determination of Agonist Activity
Test compounds are dissolved in DMSO, diluted in 20 μl KRH buffer so that the final concentration of test compounds in the assay well is between 1 μM and 5 μM, and added to cells prepared as described above. The 96 well plates containing prepared cells and test compounds are incubated in the dark, at room temperature for 0.5 to 6 hours. It is important that the incubation not continue beyond 6 hours. Just prior to determining the fluorescence response, 100 pi capsaicin in KRH buffer at twice the EC50 concentration determined as described above is automatically added by the FLIPR instrument to each well of the 96 well plate for a final sample volume of 200 μl and a final capsaicin concentration equal to the EC50. The final concentration of test compounds in the assay wells is between 1 μM and 5 μM. […]

[1] = determined as described in Example 6 (calcium mobilization, antagonist activity)
[2] = determined as described in Example 6 (antagonist activity), "*" = 1 micromolar or less
[3] = IC50 determined as described in Example 6

T1 sequence (Q8NER1 whole entry): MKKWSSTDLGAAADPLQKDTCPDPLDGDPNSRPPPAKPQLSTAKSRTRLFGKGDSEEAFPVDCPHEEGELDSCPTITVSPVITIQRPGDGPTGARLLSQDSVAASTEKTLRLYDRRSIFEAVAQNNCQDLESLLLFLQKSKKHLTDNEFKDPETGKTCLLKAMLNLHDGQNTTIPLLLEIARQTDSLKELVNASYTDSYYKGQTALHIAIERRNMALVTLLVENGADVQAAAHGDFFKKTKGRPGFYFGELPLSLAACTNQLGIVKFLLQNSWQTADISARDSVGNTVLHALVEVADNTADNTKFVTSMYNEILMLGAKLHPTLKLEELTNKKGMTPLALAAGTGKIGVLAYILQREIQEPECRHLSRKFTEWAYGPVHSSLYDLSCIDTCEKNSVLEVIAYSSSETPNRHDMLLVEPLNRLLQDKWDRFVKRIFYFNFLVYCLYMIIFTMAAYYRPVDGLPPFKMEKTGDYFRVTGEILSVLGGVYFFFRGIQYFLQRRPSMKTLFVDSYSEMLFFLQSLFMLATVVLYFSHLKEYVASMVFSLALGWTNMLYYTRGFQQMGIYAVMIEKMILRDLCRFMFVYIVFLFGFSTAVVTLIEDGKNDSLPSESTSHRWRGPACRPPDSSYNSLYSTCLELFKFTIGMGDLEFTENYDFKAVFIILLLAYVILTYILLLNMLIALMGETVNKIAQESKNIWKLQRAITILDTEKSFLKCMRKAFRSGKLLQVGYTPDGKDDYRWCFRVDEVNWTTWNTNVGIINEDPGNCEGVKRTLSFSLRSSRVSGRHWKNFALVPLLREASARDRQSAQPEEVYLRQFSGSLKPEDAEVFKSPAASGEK

Structure (SMILES)	IC50 [1]	IC50 [3]	also measured
O=C1CCCN1c1nc(-c2ccc(F)c(Cl)c2)cc(N2CCN(c3ncccc3C(F)(F)F)CC2)n1 [Example 668, 1-(4-(3-chloro-4-fluorophenyl)-6-{4-[3-(trifluoromethyl)pyridin-2-yl]piperazin-1-yl}pyrimidin-2-yl)pyrrolidin-2-one]	≤ 1000 nM	–	–
C[C@@H]1CN(c2nccnc2Cl)CCN1c1cc(-c2ccc(F)c(F)c2)nc(Cl)n1 (stereo in doubt) [Example 823, 2-chloro-4-[4-(3-chloropyrazin-2-yl)-2-methylpiperazin-1-yl]-6-(3,4-difluorophenyl)pyrimidine]	–	–	IC50 [2]: ≤ 1000 nM
Fc1ccc(-c2cc(N3CCN(c4ncccc4C(F)(F)F)CC3)nc(C3=CCNCC3)n2)cc1Cl [Example 864, 4-(3-chloro-4-fluorophenyl)-2-(1,2,3,6-tetrahydropyridin-4-yl)-6-{4-(3-(trifluoromethyl)pyridin-2-yl]piperazin-1-yl}pyrimidine]	–	–	IC50 [2]: ≤ 1000 nM
Cc1cn(-c2nc(-c3cccc(Cl)c3)cc(N3CCN(c4ncccc4C(F)(F)F)CC3)n2)c(C)n1 [Example 637, 4-(3-chlorophenyl)-2-(2,4-dimethyl-1H-imidazol-1-yl)-6-(4-[3-(trifluoromethyl)pyridin-2-yl]piperazin-1-yl}pyrimidine]	≤ 1000 nM	–	–
C[C@@H]1CN(c2ccccc2F)CCN1c1cc(-c2ccc(F)c(Cl)c2)nc(N2CCOCC2)n1 [Example 991, 4-{4-(3-chloro-4-fluorophenyl)-6-[(2R)-4-(2-fluorophenyl)-2-methylpiperazin-1-yl]pyrimidin-2-yl}morpholine]	–	–	IC50 (IC50 determined as described in Example 6 (antagonist activity, calcium mobilization)): ≤ 1000 nM
C[C@@H]1CN(c2ncccc2Cl)CCN1c1cc(-c2ccc(C(C)(C)C)cc2)nc(N2CCOCC2)n1 [Example 520, 4-{4-(4-tert-butylphenyl)-6-[(2R)-4-(3-chloropyridin-2-yl)-2-methylpiperazin-1-yl]pyrimidin-2-yl}morpholine]	–	≤ 1000 nM	–
COCCCOc1nc(-c2ccc(F)c(Cl)c2)cc(N2CCN(c3ncccc3C(F)(F)F)CC2)n1 [Example 555, 4-(3-chloro-4-fluorophenyl)-2-(3-methoxypropoxy)-6-{4-[3-(trifluoromethyl)pyridin-2-yl]piperazin-1-yl}pyrimidine]	–	≤ 1000 nM	–
Fc1ccc(-c2nc(N3CCOCC3)nc(N3CCN(c4ncccc4Cl)CC3)n2)cc1Cl [Example 427, 2-(3-chloro-4-fluorophenyl)-4-[4-(3-chloropyridin-2-yl)piperazin-1-yl]-6-morpholin-4-yl-1,3,5-triazine]	–	≤ 1000 nM	–
Cc1ccc(-c2cc(N3CCN(c4ncccc4C)C[C@H]3C)nc(N3CCOCC3)n2)cc1C [Example 507, 4-[4-(3,4-dimethylphenyl)-6-[(2R)-2-methyl-4-(3-methylpyridin-2-yl)piperazin-1-yl]pyrimidin-2-yl}morpholine]	–	≤ 1000 nM	–
CN(C)C1CCN(c2nc(-c3ccc(F)c(Cl)c3)cc(N3CCN(c4ncccc4C(F)(F)F)CC3)n2)C1 (centres unmarked) [Example 562, 1-(4-(3-chloro-4-fluorophenyl)-6-{4-[3-(trifluoromethyl)pyridin-2-yl]piperazin-1-yl}pyrimidin-2-yl)-N,N-dimethylpyrrolidin-3-amine]	–	≤ 1000 nM	–
C[C@@H]1CCCN1c1cc(-c2ccc(F)c(F)c2)nc(N2CCN(c3ncccc3Cl)C[C@@H]2C)n1 [Example 949, 2-[(2S)-4-(3-chloropyridin-2-yl)-2-methylpiperazin-1-yl]-4-(3,4-difluorophenyl)-6-[(2R)-2-methylpyrrolidin-1-yl]pyrimidine]	–	–	IC50 [2]: ≤ 1000 nM
Cc1cccnc1N1CCN(c2cc(-c3ccc(Cl)cc3)nc(N3CCOCC3)n2)[C@H](C)C1 [Example 483, 4-{4-(4-chlorophenyl)-6-[(2R)-2-methyl-4-(3-methylpyridin-2-yl)piperazin-1-yl]pyrimidin-2-yl}morpholine]	–	≤ 1000 nM	–
Fc1ccc(-c2nc(N3CCOCC3)nc(N3CCN(c4ncccc4C(F)(F)F)CC3)n2)cc1Cl [Example 426, 2-(3-chioro-4-fluorophenyl)-4-morpholin-4-yl-6-{4-[3-(trifluoromethyl)pyridin-2-yl]piperazin-1-yl}-1,3,5-triazine]	–	≤ 1000 nM	–
CCOC(=O)C1CCCN(c2nc(-c3ccc(F)c(Cl)c3)cc(N3CCN(c4ncccc4C(F)(F)F)CC3)n2)C1 (centres unmarked) [Example 798, ethyl 1-(4-(3-chloro-4-fluorophenyl)-6-{4-[3-(trifluoromethyl)pyridin-2-yl]piperazin-1-yl}pyrimidin-2-yl)piperidine-3-carboxylate]	–	–	IC50 [2]: ≤ 1000 nM
Cc1cc(-c2cc(N3CCN(c4ncccc4C(F)(F)F)CC3)nc(N(C)S(=O)(=O)C(C)C)n2)ccc1F [Example 691, N-(4-(4-fluoro-3-methylphenyl)-6-{4-[3-(trifluoromethyl)pyridin-2-yl]piperazin-1-yl}pyrimidin-2-yl)-N-methytpropane-2-sulfonamide]	≤ 1000 nM	–	–
Cc1cc(-c2cc(N3CCN(c4ncccc4C(F)(F)F)CC3)nc(-c3nccn3C(C)C)n2)ccc1F [Example 684, 4-(4-fluoro-3-methylphenyl)-2-(1-isopropyl-1H-imidazol-2-yl)-6-{4-[3-(trifluoromethyl)pyridin-2-yl]piperazin-1-yl}pyrimidine]	≤ 1000 nM	–	–
Cc1cc(-c2cc(N3CCN(c4ncccc4C(F)(F)F)CC3)nc(N(C(C)C)S(=O)(=O)C(C)C)n2)ccc1F [Example 692, N-(4-(4-fluoro-3-methylphenyl)-6-{4-[3-(trifluoromethyl)pyridin-2-yl]piperazin-1-yl}pyrimidin-2-yl)-N-isopropylpropane-2-sulfonamide]	≤ 1000 nM	–	–

More lines, main results first:

IC50 [1]	IC50 [3]	Structure (SMILES)	also measured
≤ 1000 nM	–	CN(C)C[C@@H]1CCCN1c1nc(-c2ccc(F)c(Cl)c2)cc(N2CCN(c3ncccc3C(F)(F)F)CC2)n1 [Example 712, 1-[(2S)-1-(4-(3-chloro-4-fluorophenyl)-6-{4-[3-(trifluoromethyl)pyridin-2-yl]piperazin-1-yl}pyrimidin-2-yl)pyrrolidin-2-yl]-N,N-dimethylmethanamine]	–
≤ 1000 nM	–	C[C@@H]1CN(c2ncccc2Cl)CCN1c1cc(-c2ccc(F)c(Cl)c2)nc(N2CCCC2)n1 [Example 731, 4-(3-chloro-4-fluorophenyl)-6-[(2R)-4-(3-chloropyridin-2-yl)-2-methylpiperazin-1-yl]-2-pyrrolidin-1-ylpyrimidine]	–
≤ 1000 nM	–	CCC(C)N(C)c1nc(-c2ccc(F)c(C)c2)cc(N2CCN(c3ncccc3C(F)(F)F)CC2)n1 (centres unmarked) [Example 757, N-(sec-butyl)-4-(4-fluoro-3-methylphenyl)-N-methyl-6-{4-[3-(trifluoromethyl)pyridin-2-yl]piperazin-1-yl}pyrimidin-2-amine]	–
≤ 1000 nM	–	CC1CCC(C)N1c1nc(-c2ccc(F)c(Cl)c2)cc(N2CCN(c3ncccc3Cl)C[C@H]2C)n1 (stereo partly drawn) [Example 752, 4-(3-chloro-4-fluorophenyl)-6-[(2R)-4-(3-chloropyridin-2-yl)-2-methylpiperazin-1-yl]-2-(2,5-dimethylpyrrolidin-1-yl)pyrimidine]	–
≤ 1000 nM	–	Cc1cc(-c2cc(N3CCN(c4ncccc4C(F)(F)F)C[C@H]3C)nc(N(C)C(C)C)n2)ccc1F [Example 762, 4-(4-fluoro-3-methylphenyl)-N-isopropyl-N-methyl-6-{(2R)-2-methyl-4-[3-(trifluoromethyl)pyridin-2-yl]piperazin-1-yl}pyrimidin-2-amine]	–
≤ 1000 nM	–	Cc1cc(-c2cc(N3CCN(c4ncccc4Cl)CC3)nc(N3CCCC3)n2)ccc1F [Example 697, 4-[4-(3-chloropyridin-2-yl)piperazin-1-yl]-6-(4-fluoro-3-methylphenyl)-2-pyrrolidin-1-ylpyrimidine]	–

Source: US7566712B2, “Biaryl piperazinyl-pyridine analogues” (Neurogen Corporation, priority 2003, dated 2009)
